# Results published in patent US8618051B2, “Vesiculins” (Auckland Uniservices Limited, priority 2005, dated 2013).
# System: rat soleus muscle strips
# Test: rat soleus muscle assay: D-[14C(U)]-glucose incorporation into muscle glycogen
# Conditions: isolated soleus muscle strips of fasted male Wistar rats; peptide 0.71 nM to 237 nM; 120 minutes at 30° C.; read-out: EC50, stimulating the uptake and incorporation of radioactive glucose into muscle glycogen
# Method: The soleus muscle was dissected from anaesthetized fasted male Wistar rats (200 g±20 g). Each muscle was then teased longitudinally into 3 equal strips with a final radius of approximately 1.5 mm. An average of six muscle strips were transferred into flasks, containing 10 ml of carbogen-saturated nDMEM and peptide (vesiculin, insulin-II, or commercial human IGF-II (GroPep)) at concentrations ranging from 0.71 nM to 237 nM, before the addition of 10 μl of (0.5 μCi) D-[^14C(U)]-Glucose. Flasks were then incubated in a shaking water bath for 120 minutes at 30° C. under a stream of carbogen.
# After incubation, the muscle strips were removed and blotted dry before being frozen instantly in liquid nitrogen and freeze-dried for 24 hours. The dried weight of muscle strip was recorded before the muscle strips were solubilised in 250 μl of 60% KOH (70° C. water bath for 45 minutes). 750 μl of ice-cold ethanol was then added and the tubes were left overnight at −20° C. to facilitate glycogen precipitation. Tubes were then centrifuged at 9000 g for 15 minutes at 0° C., the supernatant aspirated and the glycogen pellet resuspended in 750 μl of ice-cold ethanol. […] The tubes were mixed thoroughly, and then counted using a Beckman LS 3801 β-counter. The amount of D-[^14C(U)]-Glucose incorporation into muscle glycogen was calculated by dividing the cpm values by the dry muscle weight. […]
row,EC50 [nM],Substance
1,48,"human IGF-II: commercial human IGF-II (GroPep), used as a further positive control"
2,27,mouse insulin-II: insulin-II co-purified from βTC6-F7 granules as a preparative control
